The assay deals with T1, mOREG olfactory receptor (Olfr73) (Mus musculus, UniProt Q920P2).
T1 construct: gene Or5d18; N-terminal fusion with the first 20 amino acids of rhodopsin (Rho20-mOREG); untagged mOREG also measured
T1 sequence (Q920P2 1-313): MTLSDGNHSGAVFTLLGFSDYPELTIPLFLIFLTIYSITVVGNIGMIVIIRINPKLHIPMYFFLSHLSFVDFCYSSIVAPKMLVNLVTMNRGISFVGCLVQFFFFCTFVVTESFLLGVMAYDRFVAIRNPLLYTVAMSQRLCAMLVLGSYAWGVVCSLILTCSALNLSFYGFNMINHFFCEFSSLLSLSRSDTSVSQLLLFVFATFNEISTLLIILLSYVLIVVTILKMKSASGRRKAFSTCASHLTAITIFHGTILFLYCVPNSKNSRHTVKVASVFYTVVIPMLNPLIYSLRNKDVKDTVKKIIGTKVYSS
Briefly: calcium imaging (fluo-4) in HEK293 cells co-expressing Rho-mOREG and olfactory CNG channel. The class given is cell-based. The text has this: calcium imaging (fluo-4) in HEK293 cells co-expressing Rho-mOREG and olfactory CNG channel on mOREG olfactory receptor (Olfr73) | Responses to eugenol, a ligand for mOREG, were detected in cells co-expressing Rho-mOREG and CNG

SMILES strings stand for the structures.

For `C=CCc1ccc(O)c(OC)c1` [eugenol], the EC50 turned out to be 20.8 µM.

For the origin of these results see article PMC520810, “Endoplasmic reticulum degradation impedes olfactory G-protein coupled receptor functional expression” (BMC Cell Biology, 2004).
